The record followed here is US10316371B2, “Screening methods for identifying specific Staphylococcus aureus inhibitors” (TRANA DISCOVERY, INC., priority 2011, dated 2019).

The subject of one experiment is S. aureus ATCC 29213. Description: Resistance passaging experiment. The following applies: for MIC: Staphylococcus aureus. It is filed as cell-based. On the procedure:
(§1) Two compounds (#880 and #169) were tested in time-kill assays against S. aureus strain 29213. These compounds were then used to attempt to select for resistant variants by passaging at sub-MIC concentrations for 20 passages.
The selected strain for this experiment was S. aureus ATCC 29213. A frozen glycerol stock was streaked onto MH-II agar and grown overnight at 37° C. The next day, 3-5 colonies were picked and grown in 3 mL of MH-II broth at 37° C. with 200 rpm shaking for approximately 4 hours. A 2-fold microdilution (in round-bottom, 96-well plates) was made for each compound being tested. CLSI guidelines for broth microdilution were followed. Using the bacteria grown from the overnight colonies, each microdilution was inoculated at a final concentration of 5×10^5 colony forming units (CFU)/mL. The microdilutions were incubated at 37° C. for 16 to 20 hours, after which the minimal inhibitory concentration (MIC) of each was read visually. The MIC is defined as the lowest concentration of compound resulting in no visible bacterial growth. This activity is recorded as the MIC at Passage 0. The contents of the well in the next dilution lower in concentration than the MIC (i.e., ½ the MIC) was mixed with a micropipette and 50 μL was transferred to 3 mL of fresh MH-II broth. This was grown at 37° C. with 200 rpm shaking for approximately 4 hours, at which time the sample was turbid. A 1 mL aliquot of this sample was added to a cryovial containing 300 μL of glycerol. This was marked as passage 1, vortexed, than placed in a −80° C. freezer for storage. The rest of the culture was adjusted to a bacterial concentration of 1×10^6cfu/mL (OD600 of 0.004), which was then used to inoculate a microdilution of the same compound (final bacterial concentration of 5×10^5 cfu/mL). This was incubated at 37° C. for 16 to 20 hours. After that time the MIC was once again read and recorded as the MIC at Passage 1. This process was repeated through 20 passages. Ciprofloxacin was included as a control and an untreated sample was also passaged 20 times as a negative control.

Experiment [1] has as its system S. aureus specific Arg ASL (anticodon stem loop) RNA oligomer interaction with programmed ribosomes. Description: Fluorescence polarization assay of Arg ASL / programmed ribosome complex (HTS and dose response). The experiment is classed as binding, S. aureus Arg ASL; E. coli 70S ribosomes. To be noted: control compounds. From the text: The assay requires the following materials: • Ribosomes—isolated from E. coli or S. aureus • fMet tRNA (Sigma or Chemical Block, Moscow) • mRNA (including the S-D sequence, the “box” sequence, the codon for methionine, and the codon for arginine that is specific for S. aureus, AGA, optionally with additional base pairs to the left of the S-D sequence and/or to the right of the codon for arginine) • Fluorescently labeled Arg ASL oliogomer • Buffer—HAM20,β • 384 well high binding micro titer plates (Matrix Technologies #4319, sold by Fischer Scientific as cat #50823855), or other appropriate plates for use in high throughput screening • Filtration (Sartorius Stedium 100 Kdalton VC 1042) or centrifugation for complex purification • EDTA—negative control (binding antagonist) • Neomycin—A-site binding enhancer (binding agonist)
A ribosome complex was prepared using the above materials and then purified prior to use in the assay. The prepared complex can be stored in concentrated form at −80° C. The complexes were diluted in buffer and dispensed onto plates. […] Fluorescence polarization was measured at approximately 4 hours after dispensing onto the micro-titer plates.
ASL^Arg was first heated for 2 min at 90° C. in water, after addition of 1/10 V of 10× buffer incubation continued on ice for at least 10 min. Prior to complex formation 70S ribosomes and tRNA were reactivated in buffer for 5 min at 45° C. followed by 10 min at 37° C.; mRNA was heated in buffer at 37° C. for 5 min. • (1000 μl×(2 μM E. coli 70S ribosomes+10 μM mRNA-Arg+4 μM tRNA^fmet)/HAM20,β→30 min @ 37° C.,+1000 μl×(0.2 μM neomycin+[…]))→20 min @ 37° C., overnight on ice • Final complex: (2000 pm P+2000 pm ASL)/2 ml=1 μM P+1 μM ASL HAM20,β:
Preparation of Complexes: The purified complex was diluted in ice cold HAM20,β such that the total fluorescence was approximately 2,000,000 units per 5 μL.
20 μl of the diluted complex was added to all 384 well plates (except for blank wells, which received 20 μL of HAM20 only, without complex) using Multidrop dispenser after which the plates were incubated at 25° C. for 4 hours (target 4.5 hours for middle of batch). Plates were then analyzed for fluorescence polarization in Analyst HT fluorescence plate reader and the following instrument settings:
The parallel and perpendicular fluorescence values of experimental wells were automatically corrected for the corresponding values obtained from the blank wells. The fluorescence polarization was calculated as following: P=(I−Ip)/(I+Ip), wherein Ip—is perpendicular fluorescence and I—is parallel fluorescence.
The percent of effect of experimental compounds was calculated as following: %-Inh=(P0−Pc)/(P0−P100)*100, wherein P0—is average polarization in 0%—inhibition control wells, P100—is average polarization in 100%—inhibition control wells, and Pc—is polarization in compound well.
The 3 sigma HTS hits were cherry picked and retested in 6 pt dose response format, using 3× serial dilution and the top nominal concentration of 100 uM.
The compounds were serially diluted in 10% DMSO and plated into 384 well plates (in a volume of 5 μL) to achieve the nominal final concentration raging from 100 μM to 0.4 μM. The plates received 20 μl of the diluted complex following incubation at 25° C. for 4 hours. Plates were then analyzed for fluorescence polarization as described above (see HTS section).
In parallel, the compounds were tested for auto-fluorescence. To this end, the compounds were plated (using the same dilution protocol) into 384 well plates. The plates received 20 μL of the HAM20 assay buffer only (without complex). The plates were incubated for 4 hrs and then were analyzed for fluorescence polarization as described above.
For orientation: Fluorescence polarisation rises when a labelled molecule tumbles more slowly, as on binding a larger partner.

The next experiment relates to S. aureus strain 29213. Description: Time-kill experiments. To be noted: by 8 hours. It is filed as cell-based. On the procedure:
as §1
Twenty mL of MH-II media warmed to 37° C. was seeded with log-phase growth S. aureus strain 29213 at 1×10^6 cfu/mL in 50 mL erlenmeyer shake-flasks. Compound was added at 2× and 4× the MIC value. Negative controls (no drug) and positive drug controls (vancomycin at 2× and 4× the MIC) were included in the experiment. Flasks were shaken at 200 rpm and 37° C. Samples were taken at the times indicated (0, 2, 4, 6, 8 and 24 hrs post inoculation) and bacterial loads were quantified by limiting dilution assay.

≈ marks a conversion by molar mass, not a printed value. Read-outs that look alike come from different tables or passages of the source. A value given as a limit tells only on which side of the number the result lay.

In general, MIC refers to the least concentration at which growth counts as inhibited. Take `O=C(O)c1cn(C2CC2)c2cc(N3CCNCC3)c(F)cc2c1=O` [Ciprofloxacin]: the “MIC in S. aureus 29213” value against S. aureus ATCC 29213 (Passage 0) was 0.5 µg/mL (≈ 1.51 µM); against S. aureus ATCC 29213 (Passage 20, passaged at sub-MIC) it was greater than 256 µg/mL. The minimum inhibitory concentration (MIC) was 0.5 µg/mL (≈ 1.51 µM) in the experiment on S. aureus ATCC 29213 (ATCC29213, read-out: MIC in S. aureus 29213, Passage 0); 1 µg/mL (≈ 3.02 µM) with S. aureus ATCC 29213 (ATCC29213, read-out: MIC in S. aureus 29213, Passage 1, passaged at sub-MIC); 2 µg/mL (≈ 6.04 µM) in the experiment on S. aureus ATCC 29213 (ATCC29213, read-out: MIC in S. aureus 29213, Passage 2, passaged at sub-MIC); 2 µg/mL (≈ 6.04 µM) with S. aureus ATCC 29213 (ATCC29213, read-out: MIC in S. aureus 29213, Passage 3, passaged at sub-MIC); 2 µg/mL (≈ 6.04 µM) in the experiment with S. aureus ATCC 29213 (ATCC29213, read-out: MIC in S. aureus 29213, Passage 4, passaged at sub-MIC); 2 µg/mL (≈ 6.04 µM) in the experiment with S. aureus ATCC 29213 (ATCC29213, read-out: MIC in S. aureus 29213, Passage 5, passaged at sub-MIC). Also, the MIC was found to be 2 µg/mL (≈ 6.04 µM) in the experiment on S. aureus ATCC 29213 (ATCC29213, read-out: MIC in S. aureus 29213, Passage 6, passaged at sub-MIC); 2 µg/mL (≈ 6.04 µM) in the experiment with S. aureus ATCC 29213 (ATCC29213, read-out: MIC in S. aureus 29213, Passage 7, passaged at sub-MIC); 4 µg/mL (≈ 12.1 µM) with S. aureus ATCC 29213 (ATCC29213, read-out: MIC in S. aureus 29213, Passage 8, passaged at sub-MIC); 8 µg/mL (≈ 24.1 µM) with S. aureus ATCC 29213 (ATCC29213, read-out: MIC in S. aureus 29213, Passage 9, passaged at sub-MIC); 8 µg/mL (≈ 24.1 µM) in the experiment on S. aureus ATCC 29213 (ATCC29213, read-out: MIC in S. aureus 29213, Passage 10, passaged at sub-MIC); 16 µg/mL (≈ 48.3 µM) in the experiment on S. aureus ATCC 29213 (ATCC29213, read-out: MIC in S. aureus 29213, Passage 11, passaged at sub-MIC). Also, the minimal inhibitory concentration (MIC) came to 16 µg/mL (≈ 48.3 µM) in the experiment on S. aureus ATCC 29213 (ATCC29213, read-out: MIC in S. aureus 29213, Passage 12, passaged at sub-MIC); 32 µg/mL (≈ 96.6 µM) in the experiment on S. aureus ATCC 29213 (ATCC29213, read-out: MIC in S. aureus 29213, Passage 13, passaged at sub-MIC); 32 µg/mL (≈ 96.6 µM) with S. aureus ATCC 29213 (ATCC29213, read-out: MIC in S. aureus 29213, Passage 14, passaged at sub-MIC); 32 µg/mL (≈ 96.6 µM) with S. aureus ATCC 29213 (ATCC29213, read-out: MIC in S. aureus 29213, Passage 15, passaged at sub-MIC); 64 µg/mL (≈ 193 µM) with S. aureus ATCC 29213 (ATCC29213, read-out: MIC in S. aureus 29213, Passage 16, passaged at sub-MIC); 128 µg/mL (≈ 386 µM) in the experiment with S. aureus ATCC 29213 (ATCC29213, read-out: MIC in S. aureus 29213, Passage 17, passaged at sub-MIC). Also, the minimum inhibitory concentration (MIC) with S. aureus ATCC 29213 (ATCC29213, read-out: MIC in S. aureus 29213, Passage 18, passaged at sub-MIC) was 128 µg/mL (≈ 386 µM); in the experiment with S. aureus ATCC 29213 (ATCC29213, read-out: MIC in S. aureus 29213, Passage 19, passaged at sub-MIC), 256 µg/mL (≈ 773 µM); in the experiment with S. aureus ATCC 29213 (ATCC29213, read-out: MIC in S. aureus 29213, Passage 20, passaged at sub-MIC) it was greater than 256 µg/mL; with S. aureus ATCC 29213 (ATCC29213, read-out: MIC in S. aureus 29213, second Passage 10 line of Table 4 (untreated culture passaged 10 times)), 0.5 µg/mL (≈ 1.51 µM); with S. aureus ATCC 29213 (ATCC29213, read-out: MIC in S. aureus 29213, second Passage 20 line of Table 4 (untreated culture passaged 20 times)), 0.5 µg/mL (≈ 1.51 µM). In addition, in the experiment with S. aureus ATCC 29213 (passaging at sub-MIC concentration, 20 passages), the “increase of MIC over 20 passages” value is greater than 512 fold.

Turning to `O=C(O)CN(CCN(CC(=O)O)CC(=O)O)CC(=O)O` [EDTA, reference compound], the “effect on complex formation (fluorescence polarization versus time, FIG. 11)” value in experiment [1] is recorded as “inhibitor of complex formation”.

`CN[C@H](CC(C)C)C(=O)N[C@H]1C(=O)N[C@@H](CC(N)=O)C(=O)N[C@H]2C(=O)N[C@H]3C(=O)N[C@H](C(=O)N[C@H](C(=O)O)c4cc(O)cc(O)c4-c4cc3ccc4O)[C@H](O)c3ccc(c(Cl)c3)Oc3cc2cc(c3O[C@@H]2O[C@H](CO)[C@@H](O)[C@H](O)[C@H]2O[C@H]2C[C@](C)(N)[C@H](O)[C@H](C)O2)Oc2ccc(cc2Cl)[C@H]1O` [Vancomycin, reference compound]: the “reduction of bacterial counts” value in the experiment on S. aureus strain 29213 (2× the MIC) is reported as 2.5 log10. In addition, the “reduction of bacterial counts (killing)” value in the experiment on S. aureus strain 29213 (4× the MIC) is recorded as 2.5 log10.

Regarding Neomycin [reference compound], in experiment [1], the “effect on complex formation (fluorescence polarization versus time, FIG. 11)” value is “stabilizer of complex formation”.
